The results in this text go back to patent US7288659B2, “Acylaminothiazole derivatives, their preparation and therapeutic use” (Sanofi-Aventis, priority 2001, dated 2007).

One may read the melting point as the temperature of the solid-liquid transition. For `Cc1nc(NC(=O)C(C)NC(=O)Cc2cc(F)cc(F)c2)sc1-c1ccccc1COC1CCCCC1` (stereo not drawn) [compound 12, N-(5-{2-[(cyclohexyloxy)methyl]phenyl}-4-methyl-1,3-thiazol-2-yl)-2-{[2-(3,5-difluorophenyl)acetyl]-amino}propanamide], the melting point was found to be 152 °C.
The same measure for `CCC(NC(=O)Cc1cc(F)cc(F)c1)C(=O)Nc1ncc(-c2ccccc2COC2CCCCC2)s1` (stereo not drawn) [compound 9, N-(5-{2-[(cyclohexyloxy)methyl]phenyl}-1,3-thiazol-2-yl}-2-{[2-(3,5-difluorophenyl)acetyl]amino}butanamide]: 179 °C; for `CCC[C@H](NC(=O)Cc1cc(F)cc(F)c1)C(=O)Nc1nc(C(C)C)c(-c2ccccc2COC2CCCCC2)s1` [compound 63, (2S)-N-(5-{2-[(cyclohexyloxy)methyl]phenyl}-4-isopropyl-1,3-thiazol-2-yl)-2-{[2-(3,5-difluorophenyl)-acetyl]amino}pentanamide]: 74 °C; for `CCCC[C@H](NC(=O)Cc1cc(F)cc(F)c1)C(=O)Nc1ncc(-c2ccccc2COC2CCCCC2)s1` [compound 47, (2S)-N-(5-{2-[(cyclohexyloxy)methyl]phenyl}-1,3-thiazol-2-yl)-2-{[2-(3,5-difluorophenyl)acetyl]amino}-hexanamide]: 77.6 °C.
The result for `C[C@H](NC(=O)[C@@H](O)c1cc(F)cc(F)c1)C(=O)Nc1ncc(-c2ccccc2COC2CCCCC2)s1` [Compound No. 51, (2S)-N-(5-{2-[(cyclohexyloxy)methyl]phenyl}-1,3-thiazol-2-yl)-2-{[(2S)-2-(3,5-difluorophenyl)-2-hydroxyacetyl]amino}propanamide] reads 159 °C; that for `CC(NC(=O)Cc1cc(F)cc(F)c1)C(=O)Nc1ncc(-c2ccccc2COCC2CCCCC2)s1` (stereo not drawn) [compound 8, N-(5-{2-[(cyclohexylmethoxy)methyl]phenyl}-1,3-thiazol-2-yl)-2-{[2-(3,5-difluorophenyl)acetyl]amino}-propanamide], 143 °C; that for `CC(C)OCc1ccccc1-c1cnc(NC(=O)[C@H](C)NC(=O)Cc2cc(F)cc(F)c2)s1` [compound 22, (2S)-2-{[2-(3,5-difluorophenyl)acetyl]amino}-N-{5-[2-(isopropoxymethyl)phenyl]-1,3-thiazol-2-yl}propanamide], 136 °C.
The result for `C[C@H](NC(=O)Cc1cc(F)cc(F)c1)C(=O)Nc1ncc(-c2ccc(COC3CCCCC3)cc2)s1` [compound 39, (2S)-N-(5-{4-[(cyclohexyloxy)methyl]phenyl}-1,3-thiazol-2-yl)-2-{[2-(3,5-difluorophenyl)acetyl]amino}-propanamide] reads 155 °C; that for `Cc1cccc(CC(=O)N[C@@H](C)C(=O)Nc2ncc(-c3ccccc3COC3CCCCC3)s2)c1` [compound 16, (2S)-N-(5-{2-[(cyclohexyloxy)methyl]phenyl}-1,3-thiazol-2-yl)-2-{[2-(3-methylphenyl)acetyl]amino}-propanamide], 98 °C.
For `CCC[C@H](NC(=O)C(F)c1cc(F)cc(F)c1)C(=O)Nc1ncc(-c2ccccc2COC2CCCCC2)s1` (stereo partly drawn) [compound 64, (2S)-N-(5-{2-[(cyclohexyloxy)methyl]phenyl}-1,3-thiazol-2-yl)-2-{[2-(3,5-difluorophenyl)-2-fluoroacetyl]amino}pentanamide], the melting point is 139 °C.
The result for `CC(C)[C@H](NC(=O)Cc1cc(F)cc(F)c1)C(=O)Nc1ncc(-c2ccccc2COC2CCCCC2)s1` [compound 31, (2S)-N-(5-{2-[(cyclohexyloxy)methyl]phenyl}-1,3-thiazol-2-yl)-2-{[2-(3,5-difluorophenyl)acetyl]amino}-3-methylbutanamide] reads 87 °C; that for `COC1CCC(OCc2ccccc2-c2cnc(NC(=O)[C@H](C)NC(=O)Cc3cc(F)cc(F)c3)s2)CC1` (stereo partly drawn) [compound 73, (2S)-2-{[2-(3,5-difluorophenyl)acetyl]amino}-N-[5-(2-{[(4-methoxycyclohexyl)oxy]methyl}phenyl]-1,3-thiazol-2-yl}propanamide], 149 °C.
The result for `CC(C)(C)[C@H](NC(=O)Cc1cc(F)cc(F)c1)C(=O)Nc1ncc(-c2ccccc2COC2CCCCC2)s1` [compound 37, (2S)-N-(5-{2-[(cyclohexyloxy)methyl]phenyl}-1,3-thiazol-2-yl)-2-{[2-(3,5-difluorophenyl)acetyl]amino}-3,3-dimethylbutanamide] reads 73 °C.
The same measure for `CCC[C@H](NC(=O)Cc1cc(F)cc(F)c1)C(=O)Nc1nc(CC)c(-c2ccccc2COC2CCCCC2)s1` [compound 59, (2S)-N-(5-{2-[(cyclohexyloxy)methyl]phenyl}-4-ethyl-1,3-thiazol-2-yl)-2-{[2-(3,5-difluorophenyl)-acetyl]amino}pentanamide]: 80 °C; for `C[C@H](NC(=O)Cc1cc(F)cc(F)c1)C(=O)Nc1ncc(-c2ccccc2COC2CCCC2)s1` [compound 49, (2S)-N-(5-{2-[(cyclopentyloxy)methyl]phenyl}-1,3-thiazol-2-yl)-2-{[2-(3,5-difluorophenyl)acetyl]amino}-propanamide]: 236 °C; for `CC(C)C[C@H](NC(=O)Cc1cc(F)cc(F)c1)C(=O)Nc1ncc(-c2ccccc2COC2CCCCC2)s1` [compound 36, (2S)-N-(5-{2-[(cyclohexyloxy)methyl]phenyl}-1,3-thiazol-2-yl)-2-{[2-(3,5-difluorophenyl)acetyl]amino}-4-methylpentanamide]: 67 °C.
As for `Cc1nc(NC(=O)[C@H](C)NC(=O)Cc2cc(F)cc(F)c2)sc1-c1ccccc1COC(C)C` [compound 27, (2S)-2-{[2-(3,5-difluorophenyl)acetyl]amino}-N-{5-[2-(isopropoxymethyl)phenyl]-4-methyl-1,3-thiazol-2-yl}propanamide], the melting point turned out to be 74 °C.
The result for `C[C@H](NC(=O)Cc1cccc(Cl)c1)C(=O)Nc1ncc(-c2ccccc2COC2CCCCC2)s1` [compound 18, (2S)-2-{[2-(3-chlorophenyl)acetyl]amino}-N-{5-{2-[(cyclohexyloxy)methyl]phenyl}-1,3-thiazol-2-yl}propanamide] reads 96 °C; that for `C[C@H](NC(=O)Cc1cc(F)cc(F)c1)C(=O)Nc1ncc(-c2ccccc2CSC2CCCCC2)s1` [compound 54, (2S)-N-(5-{2-[(cyclohexylsulfanyl)methyl]phenyl}-1,3-thiazol-2-yl)-2-{[2-(3,5-difluorophenyl)acetyl]-amino}propanamide], 91.6 °C.
Molecule `C[C@H](NC(=O)Cc1cccc(F)c1)C(=O)Nc1ncc(-c2ccccc2COC2CCCCC2)s1` [compound 19, (2S)-N-(5-{2-[(cyclohexyloxy)methyl]phenyl}-1,3-thiazol-2-yl)-2-{[2-(3-fluorophenyl)acetyl]amino}-propanamide] registered a melting point of 98 °C.
The same measure for `CCC[C@H](NC(=O)Cc1cc(F)cc(F)c1)C(=O)Nc1nc(C)c(-c2ccccc2COC2CCCCC2)s1` [compound 52, (2S)-N-(5-{2-[(cyclohexyloxy)methyl]phenyl}-4-methyl-1,3-thiazol-2-yl)-2-{[2-(3,5-difluorophenyl)-acetyl]amino}pentanamide]: 94 °C; for `CC[C@H](NC(=O)Cc1cc(F)cc(F)c1)C(=O)Nc1ncc(-c2ccccc2COC(C)C)s1` [compound 70, (2S)-2-{[2-(3,5-difluorophenyl)acetyl]amino}-N-{5-[2-(isopropoxymethyl)phenyl]-1,3-thiazol-2-yl}butanamide]: 73 °C.
The same measure for `COc1cccc(CC(=O)N[C@@H](C)C(=O)Nc2ncc(-c3ccccc3COC3CCCCC3)s2)c1` [compound 34, (2S)-N-(5-{2-[(cyclohexyloxy)methyl]phenyl}-1,3-thiazol-2-yl)-2-{[2-(3-methoxyphenyl)acetyl]amino}-propanamide]: 94 °C; for `CCC[C@H](NC(=O)Cc1cc(F)cc(F)c1)C(=O)Nc1ncc(-c2ccc(OC)cc2COC(C)C)s1` [Compound No. 75, (2S)-2-{[2-(3,5-difluorophenyl)acetyl]amino}-N-(5-{2-(isopropoxymethyl)-4-methoxyphenyl}-1,3-thiazol-2-yl)pentanamide]: 73.9 °C; for `CC(NC(=O)Cc1cc(F)cc(F)c1)C(=O)Nc1ncc(-c2ccccc2COc2ccccc2)s1` (stereo not drawn) [Compound No. 5, 2-{[2-(3,5-difluorophenyl)acetyl]amino}-N-{5-[2-(phenoxymethyl)phenyl]-1,3-thiazol-2-yl}propanamide]: 114 °C.
The result for `CCC[C@H](NC(=O)Cc1cc(F)cc(F)c1)C(=O)Nc1ncc(-c2ccccc2COC(C)C)s1` [compound 72, (2S)-2-{[2-(3,5-difluorophenyl)acetyl]amino}-N-{5-[2-(isopropoxymethyl)phenyl]-1,3-thiazol-2-yl}pentanamide] reads 74 °C; that for `CC(C)C(NC(=O)Cc1cc(F)cc(F)c1)C(=O)Nc1ncc(-c2ccccc2COC2CCCCC2)s1` (stereo not drawn) [compound 10, N-(5-{2-[(cyclohexyloxy)methyl]phenyl}-1,3-thiazol-2-yl}-2-{[2-(3,5-difluorophenyl)acetyl]amino}-3-methylbutanamide], 181 °C; that for `CCC[C@H](NC(=O)C(=O)c1cc(F)cc(F)c1)C(=O)Nc1ncc(-c2ccccc2COC2CCCCC2)s1` [compound 60, (2S)-N-(5-{2-[(cyclohexyloxy)methyl]phenyl}-1,3-thiazol-2-yl)-2-{[2-(3,5-difluorophenyl)-2-oxoacetyl]-amino}pentanamide], 77 °C.
`O=C(Cc1cc(F)cc(F)c1)NCC(=O)Nc1ncc(-c2ccccc2COC2CCCCC2)s1` [compound 15, N-{2-[(5-{2-[(cyclohexyloxy)methyl]phenyl}-1,3-thiazol-2-yl)amino]-2-oxoethyl}-2-(3,5-difluorophenyl)-acetamide]: the melting point was 172 °C.
Regarding `CCC[C@H](NC(=O)[C@@H](O)c1cc(F)cc(F)c1)C(=O)Nc1nc(C)c(-c2ccccc2COC2CCCCC2)s1` [compound 57, (2S)-N-(5-{2-[(cyclohexyloxy)methyl]phenyl}-4-methyl-1,3-thiazol-2-yl)-2-{[(2S)-2-(3,5-difluorophenyl)-2-hydroxyacetyl]amino}pentanamide], the melting point stood at 115 °C.
